Paper PMC6692548, “Characterization of a phospholipid‐regulated β‐galactosidase from Akkermansia muciniphila involved in mucin degradation” (MicrobiologyOpen, 2019)

T1: Amuc_1686_short (Akkermansia muciniphila, UniProt B2UM60)
T1 construct: gene Amuc_1686; signal peptide removed, last 107 amino acids (C-terminal discoidin domain) deleted; N-terminal Strep-tag (pASK-IBA5), E. coli BL21(DE3); primers start at codons AAPMPF and end in DNGPH-stop
T1 sequence (B2UM60 18-673): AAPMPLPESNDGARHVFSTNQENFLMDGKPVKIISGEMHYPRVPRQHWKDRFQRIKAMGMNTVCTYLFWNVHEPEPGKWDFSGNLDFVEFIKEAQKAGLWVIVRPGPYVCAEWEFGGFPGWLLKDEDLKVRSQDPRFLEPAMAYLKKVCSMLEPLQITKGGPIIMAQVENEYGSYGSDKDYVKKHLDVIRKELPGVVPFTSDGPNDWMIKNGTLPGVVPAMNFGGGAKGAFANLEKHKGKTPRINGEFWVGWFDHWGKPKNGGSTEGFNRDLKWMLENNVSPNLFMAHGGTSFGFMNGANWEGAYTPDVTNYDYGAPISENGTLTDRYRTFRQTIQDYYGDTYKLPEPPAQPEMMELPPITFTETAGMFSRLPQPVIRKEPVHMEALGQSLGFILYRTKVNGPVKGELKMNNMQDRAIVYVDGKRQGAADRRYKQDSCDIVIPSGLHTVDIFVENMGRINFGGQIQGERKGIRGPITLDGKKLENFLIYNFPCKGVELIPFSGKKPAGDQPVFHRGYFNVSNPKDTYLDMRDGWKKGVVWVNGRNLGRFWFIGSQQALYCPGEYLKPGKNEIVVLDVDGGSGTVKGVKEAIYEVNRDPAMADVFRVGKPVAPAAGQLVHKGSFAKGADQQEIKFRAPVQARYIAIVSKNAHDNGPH

T2: Amuc_1686 (Akkermansia muciniphila, UniProt B2UM60)
T2 construct: GH35 beta-galactosidase with C-terminal truncated discoidin (F5/8 type C) domain; signal peptide removed (predicted cleavage between 17 and 18), N-terminal Strep-tag kept (pASK-IBA5), E. coli BL21(DE3); 87 kDa tagged (86 kDa encoded); monomer; primers start at codons AAPMPF and end in FKPAK-stop
T2 sequence (B2UM60 18-780): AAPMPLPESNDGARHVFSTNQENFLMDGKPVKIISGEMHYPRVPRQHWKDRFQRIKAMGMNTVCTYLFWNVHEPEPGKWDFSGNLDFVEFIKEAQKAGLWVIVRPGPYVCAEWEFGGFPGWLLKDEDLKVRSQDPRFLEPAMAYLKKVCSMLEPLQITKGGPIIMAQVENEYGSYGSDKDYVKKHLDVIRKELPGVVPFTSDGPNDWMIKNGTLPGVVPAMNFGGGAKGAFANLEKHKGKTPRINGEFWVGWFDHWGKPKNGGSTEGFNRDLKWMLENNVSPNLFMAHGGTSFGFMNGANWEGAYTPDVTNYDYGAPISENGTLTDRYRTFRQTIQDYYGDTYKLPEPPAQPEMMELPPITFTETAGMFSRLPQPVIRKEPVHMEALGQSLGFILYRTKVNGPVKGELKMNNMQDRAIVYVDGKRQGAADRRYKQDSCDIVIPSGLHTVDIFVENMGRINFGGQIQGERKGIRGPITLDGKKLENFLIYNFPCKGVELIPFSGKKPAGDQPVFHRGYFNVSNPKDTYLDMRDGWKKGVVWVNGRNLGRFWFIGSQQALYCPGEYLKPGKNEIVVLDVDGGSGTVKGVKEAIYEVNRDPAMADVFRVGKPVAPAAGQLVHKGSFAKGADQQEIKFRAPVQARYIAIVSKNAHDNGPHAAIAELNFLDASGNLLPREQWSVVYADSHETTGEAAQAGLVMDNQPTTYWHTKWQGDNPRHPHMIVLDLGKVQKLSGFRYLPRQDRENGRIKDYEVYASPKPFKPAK

B1: Amuc_1686 (Akkermansia muciniphila ATCC BAA-835) (protein)
chain: T2 sequence (B2UM60 18-780)

Experiments:
Amuc_1686_short = target: T1, Amuc_1686_short; assay: photometric 4-nitrophenol release; assay type: biochemical; details: 5 mM substrate; 50 mM combined buffer pH 7.5, 37 °C
Amuc_1686 = target: T2, Amuc_1686; assay: photometric 4-nitrophenol release; assay type: biochemical; details: 5 mM 4-nitrophenyl beta-D-galactopyranoside; 50 mM combined buffer pH 7.5, 37 °C; lipid added in methanol; non-competitive; acyl chains not given
purified protein = substrate: O=[N+]([O-])c1ccc(O[C@@H]2O[C@H](CO)[C@H](O)[C@H](O)[C@H]2O)cc1; assay: purified protein; details: 50 mM combined buffer pH 7.5, 65 °C

Molecule | IC50 (Amuc_1686) [µM] | also measured
O=[N+]([O-])c1ccc(O[C@@H]2O[C@H](CO)[C@H](O)[C@H](O)[C@H]2O)cc1 [para‐nitrophenyl‐β‐D‐galactopyranoside] |  | photometric 4-nitrophenol release (Amuc_1686_short): the shortened variant exhibited a slightly decreased enzymatic activity
lysophosphatidic acid [LPA] | 13.6 ± 10.6 | 
phosphatidic acid [PA] | 4.3 ± 0.2 | 
phosphatidylglycerol [PG] | 1 ± 0.1 | 
phosphatidylserine [PS] | 29.3 ± 1.5 | 
B1 |  | Km (purified protein): 500 ± 300 µM; kcat (purified protein): 530.3 ± 87.1 s⁻¹
